Values of other authors, collected in patent US7422908B2, “Chemiluminescent 1,2-dioxetanes” (priority 2002, dated 2008).

What was measured:
[1] = thermal decomposition
[2] = compared with 1,2-dioxetanes (14) and (15); CH3 group replaced with CH2CH2CH2COOH

| decomposes at (temperature) [1] | Compound | solubility in an aqueous system [2] |
| --- | --- | --- |
| 150 °C | C1C2CC3CC1CC(C2)C31OOC12C1CC3CC(C1)CC2C3 (centres unmarked) [Dioxetane 5] |  |
|  | O=C(O)CCCOC1(c2cccc(OP(=O)(O)O)c2)OOC12C1CC3CC(C1)CC2C3 (centres unmarked) [Dioxetane 16] | more soluble in an aqueous system than 1,2-dioxetane (14) and (15) |
